According to PMC6394990, “Detailed characterization of the solution kinetics and thermodynamics of biotin, biocytin and HABA binding to avidin and streptavidin” (PLoS ONE, 2019):
Several values for one entry are separate records, joined by “and”; a condition that tells them apart may be missing. Identical values can stand only once. Like-named read-outs stand apart in the source and are kept apart here.

How the values were obtained:
[1] = target: T1, avidin (AV) (Gallus gallus, UniProt P02701); experiment: Quantum yields (QY), AV complex; assay type: physicochemical
T1 construct: purchased Calbiochem (La Jolla, CA)
T1 sequence (P02701 25-152): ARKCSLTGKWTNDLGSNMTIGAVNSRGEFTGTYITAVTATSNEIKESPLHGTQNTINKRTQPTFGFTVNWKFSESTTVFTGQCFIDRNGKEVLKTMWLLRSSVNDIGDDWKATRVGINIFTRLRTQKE
Experimental: The lifetimes (τ), steady state anisotropies (rss), time-resolved anisotropies (rt) and quantum yields (QY) of the complexes (at 20 ± 0.1°C and pH 8) were collected with a dye-labeled B7 probe concentration of 20–40 nM and 1040–2080 nM of either protein (AV or SAV) to ensure that only one binding site in the tetramer was filled with a ligand (AB1 filling model).
The QY values were obtained by using a reference fluorophore of known quantum yield and were calculated according to Parker and Rees, where the reference dye was fluorescein in 0.1N sodium hydroxide solution [46]. The emission fluorescence scans were collected from 480 nm to 700 nm with the excitation light set at 460 nm provided by the xenon arc lamp described above. These measurements were made on the AB1 complexes at high protein concentration.

[2] = target: T2, streptavidin (SAV) (Streptomyces avidinii, UniProt P22629); experiment: Intrinsic lifetime, dynamic quantum yield and fraction of non-statically quenched molecules, SAV complex; assay type: physicochemical
T2 construct: purchased Sigma Aldrich (St. Louis, MO)
T2 sequence (P22629 25-183): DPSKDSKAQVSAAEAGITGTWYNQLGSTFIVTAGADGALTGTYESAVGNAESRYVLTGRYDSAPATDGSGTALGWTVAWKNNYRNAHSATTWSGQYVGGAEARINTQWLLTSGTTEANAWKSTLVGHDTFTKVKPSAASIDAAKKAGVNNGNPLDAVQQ

[3] = target: T3, de-glycosylated AV (Gallus gallus, UniProt P02701); experiment: Stopped-flow association kinetics with endoglycosidase H de-glycosylated avidin; assay type: binding; details: de-glycosylated AV; 15°C
T3 construct: purchased Calbiochem (La Jolla, CA)
T3 sequence (P02701 25-152): as the sequence (P02701 25-152) above
Experimental: These reactions were carried out in a buffered solution of 10 mM Tris-HCl, 100 mM KCl, 2.5 mM MgCl2 and 1 mM CaCl2 at pH 8 and only AV-BcO reactions included pH 9 and 10. The concentrations, after mixing, were of 20 nM of dye-labeled B7 probe and 260 nM, 520 nM or 1040 nM of AV; and 200 nM, 300 nM, 400 nM or 800 nM of SAV at temperatures of 10, 15, 20 and 25°C. The deglycosylation of AV (for comparative association reactions) was carried out using the provided standard protocol with endoglycosidase H [47], both with and without incubation of a denaturant solution (2% SDS and 1M 2-mercaptoethanol).
The reactions were collected with the SF instrument, described previously. The fluorescence signal was collected through a 520 nm interference filter (Oriel Corp., Stratford, CT) with a detector time constant and SF dead time of 1 μs and 1 ms, respectively. The excitation light was provided by the Coherent Ar^+ ion laser (described above) at 488 nm with […] of incident power on the reaction cuvette. The laser source was followed by the photo-elastic modulator described above with the axis oriented 45^o with respect to the electric vector of the incident light and with the half-wave modulation (50 kHz) set for 488 nm excitation. The demodulation circuitry following the photomultiplier provided a DC(t) and a rectified AC(t) which were converted to digital data by a high-speed digitizer (PCI-5122) from National Instruments (Austin, TX) with 14-bit resolution and 100 MHz bandwidth, through channels 0 and 1. The data acquisition was controlled by LabVIEW (Vr 8) software at a collection rate of 6120 data points/second and stored in spreadsheets. The AC(t) and DC(t) data were baseline corrected before obtaining the signal ratio (Eq 4) as a function of time (ρt).

[4] = target: T2, streptavidin (SAV); experiment: Stopped-flow association kinetics of dye-labeled biotin probes binding to streptavidin (F(t), rF(t); Arrhenius plots/global fitting); parameters: kcal/mol (from Arrhenius slope) / Eon for BFl: unit not given here; details: for half-time of association, rF¯(t): probe 20 nM
Experimental: These reactions were carried out in a buffered solution of 10 mM Tris-HCl, 100 mM KCl, 2.5 mM MgCl2 and 1 mM CaCl2 at pH 8 and only AV-BcO reactions included pH 9 and 10. […] The deglycosylation of AV (for comparative association reactions) was carried out using the provided standard protocol with endoglycosidase H [47], both with and without incubation of a denaturant solution (2% SDS and 1M 2-mercaptoethanol).
The reactions were collected with the SF instrument, described previously. […] The AC(t) and DC(t) data were baseline corrected before obtaining the signal ratio (Eq 4) as a function of time (ρt).
The constant AGain is the instrumental amplitude gain and was evaluated by solving ρ(t) using the known steady state anisotropy (rss) of the complexes which is equivalent to the r(t) at t = ∞; and H, obtained from the equivalent grating factor (G) for the filters and photo multiplier tubes in the SF. For the probes used in here G was 0.82 and H = (1-G)/(1+G) = 0.099. Knowing Again and H, the AC(t) and DC(t) signals can be solved for r(t) and F(t) (Eqs 4 and 5) and the normalized fluorescence, F¯(t) , and corrected fluorescence anisotropy, rF¯(t), were obtained when F¯(0) and rF¯(0) were scaled to 1 at t = 0.
The F¯(t) (Eq 6) is equivalent to (I||) + 2 (I⊥) and proportional to quantum yield (QYi), molar absorptivity (εi) and to the formation or disappearance of the emitting species Xi(t); and rF¯(t) including the steady state anisotropies (rss) of each fluorescent species (Eq 7).
The possible reaction models were discriminated by the squared residuals of the observed and calculated association traces of both fluorescence and anisotropy fluorescence signals, F¯(t) and rF¯(t) , respectively.

## NC(CCCCNC(=O)CCCC[C@@H]1SC[C@@H]2NC(=O)N[C@@H]21)C(=O)NCCCCCNC(=O)c1ccc(-c2c3cc(F)c(=O)cc-3oc3cc(O)c(F)cc23)c(C(=O)O)c1 (stereo partly drawn) [BcO, Oregon green 488 Biocytin]
[1]; AV complex (AB1)
  Quantum Yield QY: 0.62 ± 0.02
[1]; complex with AV
  QY: 0.62 and 0.62 ± 0.02
[1]; fractional change of QY, AV complex against dye
  dQY-AV: -0.3187
[2]; SAV complex (AB1)
  Dynamic Quantum Yield Φ: 0.83 ± 0.02
  Fraction of Non-Statically Quenched Dye 1-S: 0.25 ± 0.02
  Natural Lifetime τ°: 4.8 ± 0.1
[2]; complex with SAV
  1-S (4) = QY/F, fraction of non-statically quenched molecules: 0.25 and 0.25 ± 0.02
  F (3) = Sat/t°: 0.83 ± 0.02
  S: 0.75
  t° (2), intrinsic lifetime of the fluorescence dye: 4.8 ± 0.1
[3]
  kon: 3.7e+06 M⁻¹ s⁻¹
[4]; 25°C
  kon binding to SAV, fold faster than binding to AV: 3.2 X
[4]; 277.15 K, follows from the SAV line (m2, b2), protein not printed in the line
  rate at 4C (logarithmic value): 16.3
[4]; BcO 20 nM, SAV 200 nM, 10°C
  halftime, F¯(t): 200.6 ms
  halftime, rF¯(t): 201.4 ms
  halftime, r¯(t): 332.7 ms
[4]; SAV 2, reacting with BcO
  b of the line y = m2x+b2: 27.125
[4]; SAV 2, reacting with BcO, x = 1/Temp
  slope, m of the line y = m2x+b2: -2995.5
[4]; SAV, 10 (283.15 K)
  ln(k): 16.7
[4]; SAV, 10 (283.15 K), k (full value)
  k(average): 1.73E+07
[4]; SAV, 10 (283.15 K), k (scaled)
  k(average): 17.3
[4]; SAV, 15 (288.15 K)
  ln(k): 16.8
[4]; SAV, 15 (288.15 K), k (full value)
  k(average): 2.00E+07
[4]; SAV, 15 (288.15 K), k (scaled)
  k(average): 20
[4]; SAV, 20 (293.15 K)
  ln(k): 17.0
[4]; SAV, 20 (293.15 K), k (full value)
  k(average): 2.40E+07
[4]; SAV, 20 (293.15 K), k (scaled)
  k(average): 24
[4]; SAV, 25 (298.15 K)
  ln(k): 17.2
[4]; SAV, 25 (298.15 K), k (full value)
  k(average): 3.03E+07
[4]; SAV, 25 (298.15 K), k (scaled)
  k(average): 30.3
[4]; SAV, pH 8
  Ea^Forward: 6.2 ± 0.4 kcal/mol
[4]; SAV, pH 8, forward
  ΔG^ǂ: 3.9 ± 0.4 kcal/mol
  ΔS^ǂ: 7.8 ± 0.4 cal/°K·mol
[4]; SAV, ph8
  kcal/mol (from Arrhenius slope): -9583
  slope (Arrhenius linear fit): -4823.1
[4]; pH 8, SAV, pH 8, 10°C, read-out: kon
  kon: 1.73e+07 ± 600000 M⁻¹ s⁻¹
[4]; pH 8, SAV, pH 8, 15°C, read-out: kon
  kon: 2e+07 ± 1.2e+06 M⁻¹ s⁻¹
[4]; pH 8, SAV, pH 8, 20°C, read-out: kon
  kon: 2.4e+07 ± 1.6e+06 M⁻¹ s⁻¹
[4]; pH 8, SAV, pH 8, 25°C, read-out: kon
  kon: 3.03e+07 ± 2e+06 M⁻¹ s⁻¹
[4]; SAV 200 nM, pH 8, 10°C
  half-time of association, rF¯(t): 202 ms
[4]; SAV 200 nM, pH 8, 15°C
  half-time of association, rF¯(t): 111 ms
[4]; SAV 200 nM, pH 8, 20°C
  half-time of association, rF¯(t): 79 ms
[4]; read-out: kon, mono-exponential fit of F¯(t), BcO 20 nM, SAV 200 nM, 10°C
  kon: 1.73e+07 M⁻¹ s⁻¹
[4]; read-out: kon, mono-exponential fit of rF¯(t), BcO 20 nM, SAV 200 nM, 10°C
  kon: 1.72e+07 M⁻¹ s⁻¹
[4]; read-out: kon, mono-exponential fit of uncorrected anisotropy r¯(t), BcO 20 nM, SAV 200 nM, 10°C, ill-fitted signal
  kon: 1.04e+07 M⁻¹ s⁻¹
